Source: patent US20180200331A1, “BST-2 AS A THERAPEUTIC TARGET AND DIAGNOSTIC MARKER FOR BREAST CANCER GROWTH AND METASTASIS” (University of Iowa Research Foundation, priority 2015, published 2018)

Experiments:
4T1 cells [1] = assay: Orthotopic implantation of 4T1 cells in BALB/c mice; assay type: in vivo
Description: Five-week-old C57BL/6NCr and BALB/cAnNCr female mice were used. Mice were sacrificed when they became moribund. Tumor volume (TV) was calculated as: TV=0.5(length*width2). Tumor latency was calculated as the number of tumor-free injected mice/number of injected mice×100. To assess morbidity, the following clinical score ranking was used: (0) no abnormal clinical signs, (1) ruffled fur but lively, (2) ruffled fur, activity level slowing, sick, (3) ruffled fur, eyes squeezed shut, hunched, hardly moving, very sick, (4) moribund and (5) dead. Experiments involving mice were approved by the University of Iowa Animal Care and Use Committee (IACUC).
Prior to imaging, mice were anesthetized, weighed and injected intraperitoneally with D-luciferin. Mice were imaged using the Xenogen IVIS three dimensional optical imaging system (Caliper Life Sciences, Hopkinton, Mass., USA). Luciferase was quantified with Living Image Software (Caliper Life Sciences).

mammary cancer cells = assay: Transformation assay (soft agar colony formation); assay type: cell-based, mouse; conditions: compared to shControl
Description: Agar was mixed in Roswell Park Memorial Institute medium (RPMI) with 20% FBS. A total of 500 μl of 0.5% agar was added to 24-well plate and allowed to solidify. Cells were plated at 1,250 cells/well in 500 μl of 0.35% agarose. Some 250 μl of the appropriate growth medium was added on top of the agarose layer. Growth medium was replaced twice a week. Colonies were stained with crystal violet and imaged. Colonies from five different fields were counted and averaged.

E0771 cells = assay: Boyden chamber assay; assay type: cell-based, mouse; conditions: 20 hours
Description: The apical chamber of 24-well cell culture inserts (Merck Millipore, Billerica, Mass., USA) were seeded with previously starved sh137, sh413 or shControl transduced E0771 cells (150,000) in serum-free medium. Culture medium containing 30% FBS was added to the basal chamber of the unit and cells were allowed to migrate through the membranous barrier for 20 hours at 37° C. Non-migrated cells were washed off, migrated cells were fixed with 4% PFA for 5 minutes, washed twice with 1×PBS, permeabilized with 100% methanol for 25 minutes, labeled with Giemsa stain (for 15 minutes at room temperature) and imaged using a Nikon Eclipse Ti microscope adjusted with an X-cite series 120 LED fluorescence microscope light source and a Nikon digital sight camera. Images were processed using Image J software. Cells from five different fields were counted and averaged.

4T1 cells [2] = assay: MTT assay, 4T1; assay type: cell-based, mouse
Description: A total of 5,000 cells stably expressing sh137, sh413, or shControl were plated in 96-well plates. Cells were then incubated with 5 mg/ml MTT reagent for 3.5 hours followed by addition of MTT solvent (0.1% NP-40 and 4 mM HCl in isopropanol) and rocking for 15 minutes. Absorbance at 590 nm was read using a Tecan Infinite M200 Pro plate reader.

4T1 cells [3] = assay: Tail vein injection of 4T1 cells, lung metastasis; assay type: in vivo, BALB/c mice
Description: Metastatic tumors were generated by implanting 300,000 4T1 shControl, sh413 or sh413 WT cells in 100 μl of PBS via tail vein in five-week-old female mice. Prior to imaging, mice were anesthetized, weighed and injected intraperitoneally with D-luciferin. Mice were imaged using the Xenogen IVIS three-dimensional optical imaging system (Caliper Life Sciences). Moreover, lung metastatic tumors were imaged post-mortem and counted grossly. Moreover, spleens from shControl, sh413, or sh413 WT injected mice were isolated and weighted. Average splenic weight was calculated from 3 different mice and plotted in a bar graph. Finally, Kaplan-Meier survival plots were generated and analyzed using the Gehan-Breslow-Wilcoxon test (GraphPrism) (FIG. 44).
Protein from lungs of mice injected with 4T1 shControl, sh413, or sh413 WT cells via tail vein was isolated to perform western blots blotting for total levels of BIM, levels of activated Caspase-3 (Cleaved Caspase-3) and GAPDH. Bands from 3 different western blots were normalized to GAPDH, quantified, averaged and depicted as bar graphs (FIG. 45).

“sh413: BST-2-targeting shRNA (SEQ ID NO:4), delivered by lentiviral particles (CCGGGCTTGAGAATGAAGTCACGAACTCGAGTTCGTGACTTCATTCTCAAGCTTTTTG)” was tested, and the “median overall survival (OS)” value (4T1 cells [1]; Kaplan-Meier) was “undefined”, the “survival area under the curve (AUC)” value (4T1 cells [1]; Kaplan-Meier) was 3,900 and the “number of tumors in intestine and mesentery” value (4T1 cells [1]; average of all mice) was “six”. The mammary tumor latency (4T1 cells [1]; compared to shControl cells) was “increased mammary tumor latency”, the “tumor volume over time” value (4T1 cells [1]; compared to shControl tumors) was “significantly lower” and the “mice survived to end of experiment” value (4T1 cells [1]; day 45) was 14 out of 15. For the same substance, the “incidence of metastases to the liver” value (4T1 cells [1]; mouse, in vivo) was 46%, the “incidence of metastases to the lung” value (4T1 cells [1]; mouse, in vivo) was 40% and the “mice spared of ascites and splenomegaly” value (4T1 cells [1]; mouse, in vivo) was 14 out of 15. The average tumor mass (4T1 cells [1]; n=15, at necropsy) was 0.37 g, the “colony numbers in soft agar” value (mammary cancer cells) was “reduced colony numbers” and the “rate of cell migration (Boyden chamber)” value (E0771 cells) was “significantly reduced rate of cell migration”. For the same substance, the “cell viability (MTT)” value (4T1 cells [2]) was “increased cell viability”, the “levels of pro-apoptotic factors (BIM, Caspase-3) in the lungs” value (4T1 cells [3]; tail vein injected mice) was “elevates levels of pro-apoptotic factors” and the lung metastasis (4T1 cells [3]; tail vein, 42 days) was “decreases lung metastasis in vivo”.
